In PubChem BioAssay AID1745844 (Carcinogenic Potency Database (CPDB), 2022):
Active and inactive are the calls of the source. The rule behind the calls is not given here.

Test system: rodent lifetime carcinogenesis bioassay, tumor incidence TD50
Experiment: carcinogenic potency in animals, long-term in vivo studies, CPDB compilation (AID 1745844)
Settings: rat, in feed

OCC(CO)(CBr)CBr
TD50 (strain Fischer 344, males, site: kidney, lesion: tubule adenoma, dosed 12 weeks, study length 103 weeks): 970 mg/kg/day
TD50 (strain Fischer 344, males, site: kidney, lesion: tubule adenoma, dosed 104 weeks, study length 105 weeks): 1550 mg/kg/day
TD50 (strain Fischer 344, males, site: liver, lesion: hepatocellular adenoma + hepatoblastoma + hepatocellular carcinoma, dosed 12 weeks, study length 103 weeks): 702 mg/kg/day
TD50 (strain Fischer 344, males, site: liver, lesion: hepatocellular adenoma + hepatoblastoma + hepatocellular carcinoma, dosed 104 weeks, study length 105 weeks): 1840 mg/kg/day
TD50 (strain Fischer 344, males, site: lung, lesion: alveolar/bronchiolar adenoma + alveolar/bronchiolar carcinoma, dosed 12 weeks, study length 103 weeks): 52.4 mg/kg/day
TD50 (strain Fischer 344, males, site: lung, lesion: alveolar/bronchiolar adenoma + alveolar/bronchiolar carcinoma, dosed 104 weeks, study length 105 weeks): 729 mg/kg/day
TD50 (strain Fischer 344, males, site: lung, lesion: alveolar/bronchiolar adenoma, dosed 12 weeks, study length 103 weeks): 73.1 mg/kg/day
TD50 (strain Fischer 344, males, site: lung, lesion: alveolar/bronchiolar carcinoma, dosed 12 weeks, study length 103 weeks): 327 mg/kg/day
TD50 (strain Fischer 344, males, site: lung, lesion: alveolar/bronchiolar carcinoma, dosed 104 weeks, study length 105 weeks): 1300 mg/kg/day
TD50 (strain Fischer 344, males, site: lung, lesion: squamous-cell carcinoma, dosed 12 weeks, study length 103 weeks): 484 mg/kg/day
TD50 (strain Fischer 344, males, site: mammary gland, lesion: adenoma + fibroadenoma, dosed 104 weeks, study length 105 weeks): 262 mg/kg/day
TD50 (strain Fischer 344, males, site: mammary gland, lesion: fibroadenoma, dosed 12 weeks, study length 103 weeks): 78.3 mg/kg/day
TD50 (strain Fischer 344, males, site: mammary gland, lesion: fibroadenoma, dosed 104 weeks, study length 105 weeks): 275 mg/kg/day
TD50 (strain Fischer 344, males, site: palate + tongue, lesion: squamous-cell carcinoma + squamous-cell papilloma, dosed 12 weeks, study length 103 weeks): 24 mg/kg/day
TD50 (strain Fischer 344, males, site: palate + tongue, lesion: squamous-cell papilloma, dosed 12 weeks, study length 103 weeks): 24.6 mg/kg/day
TD50 (strain Fischer 344, males, site: palate + tongue, lesion: squamous-cell papilloma, dosed 104 weeks, study length 105 weeks): 300 mg/kg/day
TD50 (strain Fischer 344, males, site: palate, lesion: squamous-cell papilloma, dosed 12 weeks, study length 103 weeks): 115 mg/kg/day
TD50 (strain Fischer 344, males, site: palate, lesion: squamous-cell papilloma, dosed 104 weeks, study length 105 weeks): 808 mg/kg/day
TD50 (strain Fischer 344, males, site: pancreas, lesion: acinar-cell adenoma, dosed 12 weeks, study length 103 weeks): 193 mg/kg/day
TD50 (strain Fischer 344, males, site: pancreas, lesion: acinar-cell adenoma, dosed 104 weeks, study length 105 weeks): 516 mg/kg/day
TD50 (strain Fischer 344, males, site: pancreatic islets, lesion: islet-cell adenoma + islet-cell carcinoma, dosed 104 weeks, study length 105 weeks): 208 mg/kg/day
TD50 (strain Fischer 344, males, site: pituitary gland, lesion: pars distalis adenoma + pars distalis carcinoma, dosed 104 weeks, study length 105 weeks): 462 mg/kg/day
TD50 (strain Fischer 344, males, site: pituitary gland, lesion: pars distalis adenoma, dosed 12 weeks, study length 103 weeks): 67.3 mg/kg/day
TD50 (strain Fischer 344, males, site: pituitary gland, lesion: pars distalis adenoma, dosed 104 weeks, study length 105 weeks): 493 mg/kg/day
TD50 (strain Fischer 344, males, site: preputial gland, lesion: adenoma + carcinoma, dosed 12 weeks, study length 103 weeks): 39 mg/kg/day
TD50 (strain Fischer 344, males, site: preputial gland, lesion: adenoma + carcinoma, dosed 104 weeks, study length 105 weeks): 793 mg/kg/day
TD50 (strain Fischer 344, males, site: preputial gland, lesion: adenoma, dosed 12 weeks, study length 103 weeks): 22.8 mg/kg/day
TD50 (strain Fischer 344, males, site: preputial gland, lesion: adenoma, dosed 104 weeks, study length 105 weeks): 819 mg/kg/day
TD50 (strain Fischer 344, males, site: seminal vesicle, lesion: adenoma + carcinoma, dosed 12 weeks, study length 103 weeks): 453 mg/kg/day
TD50 (strain Fischer 344, males, site: skin, lesion: basal-cell adenoma + basal-cell carcinoma + keratoacanthoma + squamous-cell carcinoma + squamous-cell papilloma + trichoepitheliom, dosed 104 weeks, study length 105 weeks): 166 mg/kg/day
TD50 (strain Fischer 344, males, site: skin, lesion: basal-cell adenoma + basal-cell carcinoma + trichoepithelioma, dosed 104 weeks, study length 105 weeks): 720 mg/kg/day
TD50 (strain Fischer 344, males, site: skin, lesion: basal-cell adenoma + keratoacanthoma + squamous-cell carcinoma + squamous-cell papilloma + trichoepithelioma, dosed 12 weeks, study length 103 weeks): 16.9 mg/kg/day
TD50 (strain Fischer 344, males, site: skin, lesion: basal-cell adenoma + trichoepithelioma, dosed 12 weeks, study length 103 weeks): 64.6 mg/kg/day
TD50 (strain Fischer 344, males, site: skin, lesion: basal-cell adenoma, dosed 12 weeks, study length 103 weeks): 82.3 mg/kg/day
TD50 (strain Fischer 344, males, site: skin, lesion: basal-cell adenoma, dosed 104 weeks, study length 105 weeks): 1530 mg/kg/day
TD50 (strain Fischer 344, males, site: skin, lesion: keratoacanthoma, dosed 12 weeks, study length 103 weeks): 42.5 mg/kg/day
TD50 (strain Fischer 344, males, site: skin, lesion: keratoacanthoma, dosed 104 weeks, study length 105 weeks): 235 mg/kg/day
TD50 (strain Fischer 344, males, site: skin, lesion: squamous-cell carcinoma + squamous-cell papilloma, dosed 12 weeks, study length 103 weeks): 21.7 mg/kg/day
TD50 (strain Fischer 344, males, site: skin, lesion: squamous-cell carcinoma + squamous-cell papilloma, dosed 104 weeks, study length 105 weeks): 1130 mg/kg/day
TD50 (strain Fischer 344, males, site: skin, lesion: squamous-cell papilloma, dosed 12 weeks, study length 103 weeks): 46.2 mg/kg/day
TD50 (strain Fischer 344, males, site: skin, lesion: squamous-cell papilloma, dosed 104 weeks, study length 105 weeks): 1130 mg/kg/day
TD50 (strain Fischer 344, males, site: subcutaneous tissue, lesion: fibroma, dosed 12 weeks, study length 103 weeks): 111 mg/kg/day
TD50 (strain Fischer 344, males, site: subcutaneous tissue, lesion: fibroma, dosed 104 weeks, study length 105 weeks): 271 mg/kg/day
TD50 (strain Fischer 344, males, site: subcutaneous tissue, lesion: fibrosarcoma + fibroma + sarcoma, dosed 12 weeks, study length 103 weeks): 87.3 mg/kg/day
TD50 (strain Fischer 344, males, site: subcutaneous tissue, lesion: fibrosarcoma + fibroma + sarcoma, dosed 104 weeks, study length 105 weeks): 221 mg/kg/day
TD50 (strain Fischer 344, males, site: subcutaneous tissue, lesion: fibrosarcoma + sarcoma, dosed 12 weeks, study length 103 weeks): 654 mg/kg/day
TD50 (strain Fischer 344, males, site: subcutaneous tissue, lesion: fibrosarcoma + sarcoma, dosed 104 weeks, study length 105 weeks): 1080 mg/kg/day
TD50 (strain Fischer 344, males, site: subcutaneous tissue, lesion: sarcoma, dosed 104 weeks, study length 105 weeks): 1550 mg/kg/day
TD50 (strain Fischer 344, males, site: testis, lesion: interstitial-cell adenoma, bilateral + interstitial-cell adenoma, dosed 12 weeks, study length 103 weeks): 5.94 mg/kg/day
TD50 (strain Fischer 344, males, site: testis, lesion: interstitial-cell adenoma, bilateral + interstitial-cell adenoma, dosed 104 weeks, study length 105 weeks): 66.5 mg/kg/day
TD50 (strain Fischer 344, males, site: thyroid gland, lesion: c-cell adenoma + c-cell carcinoma, bilateral + c-cell carcinoma, dosed 104 weeks, study length 105 weeks): 675 mg/kg/day
TD50 (strain Fischer 344, males, site: thyroid gland, lesion: c-cell carcinoma, bilateral + c-cell carcinoma, dosed 104 weeks, study length 105 weeks): 1920 mg/kg/day
TD50 (strain Fischer 344, males, site: thyroid gland, lesion: follicular-cell adenoma + follicular-cell carcinoma, dosed 12 weeks, study length 103 weeks): 82.6 mg/kg/day
TD50 (strain Fischer 344, males, site: thyroid gland, lesion: follicular-cell adenoma + follicular-cell carcinoma, dosed 104 weeks, study length 105 weeks): 629 mg/kg/day
TD50 (strain Fischer 344, males, site: thyroid gland, lesion: follicular-cell adenoma, dosed 12 weeks, study length 103 weeks): 132 mg/kg/day
TD50 (strain Fischer 344, males, site: thyroid gland, lesion: follicular-cell carcinoma, dosed 104 weeks, study length 105 weeks): 1110 mg/kg/day
TD50 (strain Fischer 344, males, site: tongue, lesion: squamous-cell papilloma, dosed 12 weeks, study length 103 weeks): 30.8 mg/kg/day
TD50 (strain Fischer 344, males, site: tongue, lesion: squamous-cell papilloma, dosed 104 weeks, study length 105 weeks): 500 mg/kg/day
TD50 (strain Fischer 344, males, site: urinary bladder, lesion: transitional-cell carcinoma + transitional-cell papilloma, dosed 12 weeks, study length 103 weeks): 223 mg/kg/day
TD50 (strain Fischer 344, males, site: urinary bladder, lesion: transitional-cell carcinoma + transitional-cell papilloma, dosed 104 weeks, study length 105 weeks): 2320 mg/kg/day
TD50 (strain Sprague-Dawley Spartan, females, site: any site (literature study), lesion: several types, types named in the paper, dosed 104 weeks, study length 104 weeks): 1730 mg/kg/day (inactive)
carcinogen call (strain Sprague-Dawley Spartan, females, site: liver, lesion: hepatocellular carcinoma, dosed 104 weeks, study length 104 weeks): negative (inactive)
TD50 (strain Sprague-Dawley Spartan, females, site: liver, lesion: hepatocellular hyperplastic nodule, dosed 104 weeks, study length 104 weeks): 2550 mg/kg/day (inactive)
carcinogen call (strain Sprague-Dawley Spartan, males, site: any site (literature study), lesion: several types, types named in the paper, dosed 104 weeks, study length 104 weeks): negative (inactive)
carcinogen call (strain Sprague-Dawley Spartan, males, site: liver, lesion: hepatocellular carcinoma, dosed 104 weeks, study length 104 weeks): negative (inactive)
carcinogen call (strain Sprague-Dawley Spartan, males, site: liver, lesion: hepatocellular hyperplastic nodule, dosed 104 weeks, study length 104 weeks): negative (inactive)
